Assay results: PMC10046377, “Inhibitors of the Oncogenic PA2G4-MYCN Protein-Protein Interface” (Cancers, 2023)

Assays:
[1] = test system: SK-N-BE(2)-C shMYCN cells; experiment: Alamar Blue viability, Dox-inducible SK-N-BE(2)-C shMYCN cells; assay type: cell-based; settings: Homo sapiens, 72 h, 72 h treatment
Source text: (§1) The MYCN amplified neuroblastoma cell line SK-N-BE(2)-C was kindly provided by Professor June Biedler (Memorial Sloan Kettering Cancer Centre, New York, NY, USA), and Kelly was obtained from European Collection of Cell Cultures. The two normal lung fibroblast cell lines (MRC-5 and WI-38) were purchased from ATCC. SK-N-BE(2)-C shMYCN#2 doxycycline-inducible cell and Kelly shMYCN#2 doxycycline-inducible cell were custom-made by GenScript (Piscataway, NJ, USA). SK-N-BE(2)-C, SK-N-BE(2)-C shMYCN#2, and SHEP MYCN3 doxycycline-inducible cells were maintained in Dulbecco’s modified Eagle’s medium (DMEM) (Invitrogen, Life Technologies, Waltham, MA, USA) with 10% foetal calf serum (FCS). Kelly and Kelly shMYCN#2 doxycycline-inducible cell were cultured in Roswell Park Memorial Institute (RPMI) 1640 (Invitrogen, Life Technologies) with 10% FCS. MRC-5 and WI-38 were cultured in Alpha-MEM media (Invitrogen, Life Technologies) with 10% FCS. All cells were not cultured for more than 2 months. All used cell lines were authenticated by Cell Bank Australia (Westmead, NSW, Australia) as being free from mycoplasma, and cultured at 37 °C and 5% CO2 in a humidifier incubator.
(§2) Cell viability was determined by the Alamar Blue assay (75 mg resazurin, 12.5 mg methylene blue, 164.5 mg potassium hexacyanoferrate (III), 211 mg potassium hexacyanoferrate (II) trihydrate in 500 mL of phosphate buffered saline). After 6 h incubation with Alamar Blue, the change of fluorescence was measured by Victor 3 multilabel Plate Reader (Perkin Elmer Australia, Melburne, Australia) at an excitation wavelength of 560 nm and an emission wavelength of 590 nm.
(§3) Next, we examined whether #5333 and #5338 treatment for 48 h affected the levels of WS6 target proteins, PA2G4, and MYCN in neuroblastoma cells. […] To determine the specificity of #5333 and #5338 for MYCN, we used two different doxycycline (Dox)-inducible neuroblastoma cell systems for repression of MYCN expression: shMYCN SK-N-BE(2)-C (MYCN-amplified) and shMYCN Kelly (MYCN-amplified) cell lines. Cell viability was measured following #5333 and #5338 treatments for 48–72 h. […] In addition, the specificity and efficacy of #5333 and #5338 were also tested in MYCN non-amplified SHEP MYCN3 cell lines with Dox-inducible MYCN induction. Cell viability was measured following #5333, #5338, or WS6 treatments for 72 h.
(§4) Figure 3 Compounds #5333 and #5338 functionally interact with MYCN and PA2G4 in neuroblastoma cells. (A) Western blot showing a decrease in protein expression due to #5333 or #5338 drug treatment. (B) Alamar Blue assays comparing cell viability of SK-N-BE(2)-C after Doxycycline (Dox)-inducible MYCN knockdown, followed by 72 h treatment with #5333 or #5338. […]

Kelly shMYCN cells = experiment: Alamar Blue viability, Dox-inducible Kelly shMYCN cells; assay type: cell-based; settings: Homo sapiens, 72 h, 72 h treatment
Source text: as §1, §2, §3, §4

Kelly cells = experiment: Colony formation assay, Kelly; assay type: cell-based, human; settings: increasing concentrations, 2 weeks
Procedure: A total of 250 SK-N-BE(2)-C and 500 Kelly cells were seeded in 6-well plates and treated with #5333 and #5338 24 h after seeding. Once colonies had formed (14 days for Kelly, 10 days for SK-N-BE(2)-C), cells were fixed and stained with 0.5% crystal violet in 50% methanol and washed twice to remove the unincorporated stain. The photos of colonies were taken by ChemiDoc MP Imaging System (Bio-Rad, South Granville, NSW, Australia). Stained colonies were counted, and colony size was measured using Image J software.
We treated human neuroblastoma tumour cell lines with high MYCN and PA2G4 expression (Kelly and SK-N-BE(2)-C), using increasing concentrations of #5333 or #5338, and measured the ability of cells to proliferate and form colonies in vitro over 2 weeks. […] Next, we evaluated cell replication using the BrdU uptake assay in response to 30 μM drug treatment for 48 h (Figure 2C).

neuroblastoma cells = experiment: Annexin V/7-AAD flow cytometry apoptosis assay; assay type: cell-based, human; settings: 48 h treatment
Procedure: Neuroblastoma cell lines were seeded 24 h before treating with #5333 or #5338 for 48 h. The apoptotic and necrotic effects of the #5333 and #5338 treatment were determined by staining the cells with Annexin V PE/7-AAD using the Annexin V: PE Apoptosis Detection Kit (BD Biosciences, North Ryde, NSW, Australia), according to the manufacturer’s instruction. Stained cells were measured by flow cytometry using the BD LSRFortessa (BD Biosciences, NSW, Australia) and the data was analysed using the FlowJo software.
To determine if the drug effects led to apoptosis, we stained cells with annexin-V/7-AAD, a marker of early and late apoptotic events (Figure 2D). […] To confirm the apoptotic status of the cells, protein expression of key apoptotic markers PARP/Cleaved PARP, Caspase 3/Cleaved caspase 3, BCL2, and Bax was measured (Figure 2E).

SHEP MYCN3 cells = experiment: Alamar Blue viability, SHEP MYCN3 cells with Dox-inducible MYCN induction; assay type: cell-based, human; settings: Dox-induced MYCN expression, 72 h treatment, compared with DMSO treated controls and WS6
Source text: The MYCN amplified neuroblastoma cell line SK-N-BE(2)-C was kindly provided by Professor June Biedler (Memorial Sloan Kettering Cancer Centre, New York, NY, USA), and Kelly was obtained from European Collection of Cell Cultures. The two normal lung fibroblast cell lines (MRC-5 and WI-38) were purchased from ATCC. SK-N-BE(2)-C shMYCN#2 doxycycline-inducible cell and Kelly shMYCN#2 doxycycline-inducible cell were custom-made by GenScript (Piscataway, NJ, USA). SK-N-BE(2)-C, SK-N-BE(2)-C shMYCN#2, and SHEP MYCN3 doxycycline-inducible cells were maintained in Dulbecco’s modified Eagle’s medium (DMEM) (Invitrogen, Life Technologies, Waltham, MA, USA) with 10% foetal calf serum (FCS). […]
as §2
Next, we examined whether #5333 and #5338 treatment for 48 h affected the levels of WS6 target proteins, PA2G4, and MYCN in neuroblastoma cells. […] Cell viability was measured following #5333 and #5338 treatments for 48–72 h. […]

[2] = test system: normal human myofibroblasts; experiment: Toxicity for normal human myofibroblasts relative to WS6; assay type: cell-based
Procedure: as §2
We have shown that the PA2G4 protein increased the half-life of the oncoprotein MYCN through direct binding, and competitive chemical inhibition of this bond by WS6 reduced tumorigenicity both in vitro and in vivo [11]. […] Here, we explored the structure–activity relationship (SAR) of WS6 analogue compounds with the aim to increase efficacy and reduce toxicity. […] The in vitro cytotoxicity of these 14 compounds were measured by cell viability assays using Alamar Blue in MYCN amplified human neuroblastoma (SK-N-BE(2)-C and Kelly) cell lines compared to non-malignant (WI-38, MRC-5) myofibroblast cell lines (Figure 1B,C and Supplementary Figure S1A).

[3] = Dox (2 μg/ml) +, MYCN - (knockdown)

Structure (SMILES): Cc1cccc(Oc2cc(N3CCC(C(=O)N[C@@H](C)CCc4ccccc4)CC3)ncn2)c1C [#5338]
- IC50 [1, 3]: 32.3 µM
- IC50 ([1]; Dox (2 μg/ml) -, MYCN +): 24.1 µM
- IC50 (Kelly shMYCN cells; [3]): 31.5 µM
- IC50 (Kelly shMYCN cells; Dox (2 μg/ml) -, MYCN +): 16 µM
- colony number and size, Kelly (Kelly cells): decreased both the number and size of the colonies
- apoptosis (annexin-V/7-AAD) (neuroblastoma cells): caused similar levels of apoptosis
- change of IC50 on MYCN induction, SHEP MYCN3 (SHEP MYCN3 cells): significant decrease in IC50
- fold lower toxicity for normal human myofibroblasts compared to WS6 [2]: 70 fold

Structure (SMILES): Cc1cccc(Oc2cc(N3CCC(C(=O)NCc4cccc(Br)c4)CC3)ncn2)c1C [#5333]
- IC50 [1, 3]: 46.6 µM
- IC50 ([1]; Dox (2 μg/ml) -, MYCN +): 25.2 µM
- IC50 (Kelly shMYCN cells; [3]): 52.8 µM
- IC50 (Kelly shMYCN cells; Dox (2 μg/ml) -, MYCN +): 22.4 µM
- colony number and size, Kelly (Kelly cells): decreased both the number and size of the colonies
- apoptosis (annexin-V/7-AAD) (neuroblastoma cells): caused similar levels of apoptosis
- change of IC50 on MYCN induction, SHEP MYCN3 (SHEP MYCN3 cells): significant decrease in IC50
- fold lower toxicity for normal human myofibroblasts compared to WS6 [2]: 70 fold
